# According to ChEMBL document CHEMBL5625240, “Synthesis and evaluation of 2-NMPA derivatives as potential agents for prevention of osteoporosis in vitro and in vivo” (Eur J Med Chem, 2023):
# Calls of active or inactive are those of the source. No cut-off for these calls is given here.
# Key:
# [1] = tested on: BMDM; assay: Anti-osteoporosis activity in mouse BMDM cells assessed as inhibition of RANKL-induced osteoclastogenesis at 2 uM measured for 30 mins in presence of MCSF by TRAP staining based assay; format: functional; conditions: Mus musculus, BMDM, 0.5 h
# [2] = tested on: BMDM; assay: Anti-osteoporosis activity in mouse BMDM cells assessed as inhibition of RANKL-induced osteoclastogenesis at 1 uM measured for 30 mins in presence of MCSF by TRAP staining based assay; format: functional; conditions: 0.5 h
# [3] = tested on: BMDM; assay: Anti-osteoporosis activity in mouse BMDM cells assessed as inhibition of […]-induced osteoclastogenesis at 2 uM measured for 30 mins in presence of MCSF by TRAP staining based assay; format: functional; conditions: 0.5 h
# [4] = tested on: BMDM; assay: Inhibition of RANKL/M-CSF-induced osteoclastogenesis in mouse BMDM cells assessed as decrease in bone resorption pit size at 1000 nM incubated for 6 days by microscopic analysis; format: functional, cell-based; conditions: time 6.0 day
# [5] = tested on: Mus musculus; assay: Anti-osteoporosis activity in OVX-induced osteoporosis C57BL/6 mouse model assessed as reduction in […] level in serum at 10 mg/kg, ip daily for 4 weeks; format: functional, organism-based
SMILES,inhibition at 2 µM [1],inhibition at 1 µM [2],also measured
O=C(CS(=O)(=O)c1ccccc1)Nc1cccc(Cl)c1N1CCOCC1,62.1%,–,–
CC(Oc1ccc(Cl)cc1Cl)C(=O)Nc1cccc(Cl)c1N1CCOCC1 (stereo not given),43.4%,–,–
CCCN(CCC)S(=O)(=O)c1ccc(C(=O)Oc2ccc(NC(=O)COc3ccccc3Cl)c(N3CCOCC3)c2)cc1,–,21.6%,–
Cc1cc(=O)oc2cc(OCC(=O)Nc3cc(C(F)(F)F)ccc3N3CCOCC3)ccc12,95.3%,–,inhibition at 2 µM [3]: 29.4%
CC(=O)Nc1ccc(S(=O)(=O)Oc2ccc(N)c(N3CCOCC3)c2)cc1,–,11.3%,–
CC(C)(C)[Si](C)(C)Oc1ccc(NC(=O)COc2ccccc2Cl)c(N2CCOCC2)c1,–,34.8%,–
O=C(COc1ccccc1Cl)Nc1ccc(OC(=O)c2ccco2)cc1N1CCOCC1,–,31.4%,–
O=C(COc1ccccc1Cl)Nc1ccc(OC(=O)c2cccs2)cc1N1CCOCC1,–,39.3%,–
CCC(=O)N1CCN(c2ccccc2NC(=O)COc2ccccc2Cl)CC1,–,42%,inhibition [4]: Active; Activity [5]: Active
Cc1ccc(S(=O)(=O)CC(=O)Nc2cc(Cl)ccc2N2CCOCC2)cc1,30.9%,–,–
NCCCC(O)(P(=O)(O)O)P(=O)(O)O [ALENDRONIC ACID],67.9%,–,–
O=C(COc1ccccc1Cl)Nc1ccc(OC(=O)c2ccccc2F)cc1N1CCOCC1,–,34.2%,–
